Drawing on US20260008768A1, “UREA DERIVATIVES FOR INHIBITING NLRP3 AND USES THEREOF” (VENTUS THERAPEUTICS U.S., INC., priority 2023, published 2026), this text covers IC50 for 46 compounds.

Chain of human NLRP3 (Q96P20 whole entry): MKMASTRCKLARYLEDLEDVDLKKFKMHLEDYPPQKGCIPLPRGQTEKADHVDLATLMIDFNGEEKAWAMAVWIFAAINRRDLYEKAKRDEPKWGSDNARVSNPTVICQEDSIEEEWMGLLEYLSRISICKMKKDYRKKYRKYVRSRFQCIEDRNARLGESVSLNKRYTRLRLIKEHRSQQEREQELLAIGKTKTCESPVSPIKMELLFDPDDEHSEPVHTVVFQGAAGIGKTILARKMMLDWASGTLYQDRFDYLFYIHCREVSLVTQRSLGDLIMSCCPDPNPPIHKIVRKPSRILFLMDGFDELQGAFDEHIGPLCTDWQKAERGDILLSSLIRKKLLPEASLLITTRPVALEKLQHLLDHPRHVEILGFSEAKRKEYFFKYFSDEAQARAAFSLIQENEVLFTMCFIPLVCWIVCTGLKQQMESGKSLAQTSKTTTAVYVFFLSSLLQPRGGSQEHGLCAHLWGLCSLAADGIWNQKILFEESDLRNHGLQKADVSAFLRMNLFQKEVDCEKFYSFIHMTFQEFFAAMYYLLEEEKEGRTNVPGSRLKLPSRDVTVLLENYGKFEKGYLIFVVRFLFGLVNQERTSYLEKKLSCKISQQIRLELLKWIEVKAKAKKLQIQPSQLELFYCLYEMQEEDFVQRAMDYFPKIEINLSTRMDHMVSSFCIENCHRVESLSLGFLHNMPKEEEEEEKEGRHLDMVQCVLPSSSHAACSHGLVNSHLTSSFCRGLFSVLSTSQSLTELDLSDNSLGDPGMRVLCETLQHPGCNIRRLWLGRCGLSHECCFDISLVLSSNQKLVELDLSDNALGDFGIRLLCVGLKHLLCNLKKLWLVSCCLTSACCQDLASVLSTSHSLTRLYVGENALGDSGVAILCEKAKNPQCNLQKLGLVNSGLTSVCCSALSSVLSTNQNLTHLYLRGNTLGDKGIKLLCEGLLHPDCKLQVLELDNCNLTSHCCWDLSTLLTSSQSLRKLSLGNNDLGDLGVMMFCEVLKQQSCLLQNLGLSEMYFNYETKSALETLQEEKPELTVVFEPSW

The test concerns the target human NLRP3 (Homo sapiens, UniProt Q96P20). As to the kind of experiment: Scintillation Proximity (SPA) NLRP3 Assay, displacement of 3H-MCC950. The conditions noted are these: Table B, activity class; displacement of 3H-MCC950 from human NLRP3. It is filed as binding. The protocol:
Improved NLRP3 binding correlates with increased affinity for NLRP3 protein and, by extension, increased ability to interfere with its function.
SPA experiments were conducted in a total volume of 20 μL assay buffer containing 20 mM HEPES pH 7.5, 150 mM NaCl, 5 mM MgCl2, 0.01% (v/v) Tween-20, 0.01% (w/v) bovine serum albumin (BSA) and 100 μM of adenosine diphosphate (ADP). A human NLRP3 protein (350 nM) (see, e.g., Sharif et al., Nature (2019) 570:338-343; Hochheiser et al., Nature (2022) 604:184-189; Adreeva et al., Cell (2021) 184:6299-6312; Wang et al., J Exp. Med. (2021) 219:e20211147) was incubated with various concentration of compounds in 5% dimethyl sulfoxide (DMSO) final for 15 minutes at room temperature in a white half-area 96 well OptiPlate (PerkinElmer #6002290) before adding 125 nM final of 3H-MCC950. After the addition of radiolabeled MCC950, the plate was incubated for 60 minutes at room temperature before adding 0.25 mg/ml of copper-coated polyvinyltoluene SPA beads (PerkinElmer #RPNQ0095). The plate was then transferred to a microplate counter (PerkinElmer 2450 Microbeta) to collect binding data. Binding data was analyzed 6 hrs post-PVT bead addition to allow sufficient time to reach equilibrium. Specific binding was calculated from averaged duplicates by subtracting signal from wells without NLRP3 protein.
SPA NLRP3 IC50 assay results are provided in Table B. “A” activity=<1 uM; “B” activity=1-10 uM; “C” activity=>10-50 uM; “D” activity=>50 uM-100 uM; and “E” activity=>100 uM.
On the technique in general: SPA uses beads or plates that emit light when radiolabelled molecules are held near them.
With `C[C@H]1C[C@H](NC(=O)N(C)c2ccc(OC(F)F)cc2)[C@@H]2CC[C@H]1N2c1nnn[nH]1` (single isomer, unassigned) [42D*], the IC50 (usually the concentration that inhibits the measured activity by half) lay in the range of 10 to 50 µM.
The result for `CCN(C(=O)N[C@H]1C[C@H](C)CCN(c2nnn[nH]2)C1)c1ccc(OC(F)(F)F)cc1` (single isomer, unassigned) [43B*] reads under 1 µM; that for `CCN(C(=O)N[C@@H]1C[C@@H](C)CCN(c2nnn[nH]2)C1)c1ccc(OC(F)(F)F)cc1` (single isomer, unassigned) [43C*], 10 to 50 µM; that for `CCN(C(=O)N[C@H]1C[C@@H](C)CCN(c2nnn[nH]2)C1)c1ccc(OC(F)(F)F)cc1` (single isomer, unassigned) [43D*], 1 to 10 µM.
Consider `C[C@@H]1CCN(c2nnn[nH]2)C[C@@H](NC(=O)N(CC2CC2)c2ccc(OC(F)(F)F)cc2)C1` (single isomer, unassigned) [44B*], for which the IC50 lay in the range of 1 to 10 µM.
Consider `C[C@H]1CCN(c2nnn[nH]2)C[C@H](NC(=O)N(CC2CC2)c2ccc(OC(F)(F)F)cc2)C1` (single isomer, unassigned) [44C*], for which the IC50 was 10 to 50 µM.
Next, `C[C@H]1CCN(c2nnn[nH]2)C[C@@H](NC(=O)N(CC2CC2)c2ccc(OC(F)(F)F)cc2)C1` (single isomer, unassigned) [44D*]: 1 to 10 µM.
As for `C[C@@H]1C[C@H](NC(=O)N(C)c2ccc(OC(F)(F)F)cc2)[C@H]2CC[C@@H]1N2c1nnn[nH]1` (single isomer, unassigned) [45B*], the IC50 was in the range of 10 to 50 µM.
The result for `C[C@H]1C[C@@H](NC(=O)N(C)c2ccc(OC(F)(F)F)cc2)[C@@H]2CC[C@H]1N2c1nnn[nH]1` (single isomer, unassigned) [45C*] reads 50 to 100 µM.
The result for `C[C@H]1C[C@H](NC(=O)N(C)c2ccc(OC(F)(F)F)cc2)[C@@H]2CC[C@H]1N2c1nnn[nH]1` (single isomer, unassigned) [45D*] reads 1 to 10 µM; that for `C[C@@H]1C[C@H](NC(=O)N(C)c2ccc(C3CC3)cc2)[C@H]2CC[C@@H]1N2c1nnn[nH]1` (single isomer, unassigned) [46B*], 50 to 100 µM.
Next, `C[C@H]1C[C@@H](NC(=O)N(C)c2ccc(C3CC3)cc2)[C@@H]2CC[C@H]1N2c1nnn[nH]1` (single isomer, unassigned) [46C*]: 10 to 50 µM; `C[C@H]1C[C@H](NC(=O)N(C)c2ccc(C3CC3)cc2)[C@@H]2CC[C@H]1N2c1nnn[nH]1` (single isomer, unassigned) [46D*]: 10 to 50 µM.
`C[C@@H]1C[C@H](NC(=O)N(C)c2ccc(C(F)(F)F)c(F)c2F)[C@H]2CC[C@@H]1N2c1nnn[nH]1` (single isomer, unassigned) [47B*] displayed an IC50 of 50 to 100 µM.
The result for `C[C@H]1C[C@@H](NC(=O)N(C)c2ccc(C(F)(F)F)c(F)c2F)[C@@H]2CC[C@H]1N2c1nnn[nH]1` (single isomer, unassigned) [47C*] reads over 100 µM.
The result for `C[C@H]1C[C@H](NC(=O)N(C)c2ccc(C(F)(F)F)c(F)c2F)[C@@H]2CC[C@H]1N2c1nnn[nH]1` (single isomer, unassigned) [47D*] reads 10 to 50 µM; that for `C[C@@H]1C[C@H](NC(=O)N(C)c2ccc(C(F)(F)F)cc2F)[C@H]2CC[C@@H]1N2c1nnn[nH]1` (single isomer, unassigned) [48B*], over 100 µM.
Next, `C[C@H]1C[C@@H](NC(=O)N(C)c2ccc(C(F)(F)F)cc2F)[C@@H]2CC[C@H]1N2c1nnn[nH]1` (single isomer, unassigned) [48C*]: 50 to 100 µM.
On to `C[C@H]1C[C@H](NC(=O)N(C)c2ccc(C(F)(F)F)cc2F)[C@@H]2CC[C@H]1N2c1nnn[nH]1` (single isomer, unassigned) [48D*], for which the IC50 lay within 10 to 50 µM.
The result for `C[C@@H]1C[C@H](NC(=O)N(C)c2ccc(C(F)(F)F)c(F)c2)[C@H]2CC[C@@H]1N2c1nnn[nH]1` (single isomer, unassigned) [49B*] reads over 100 µM; that for `C[C@H]1C[C@@H](NC(=O)N(C)c2ccc(C(F)(F)F)c(F)c2)[C@@H]2CC[C@H]1N2c1nnn[nH]1` (single isomer, unassigned) [49C*], 50 to 100 µM; that for `C[C@H]1C[C@H](NC(=O)N(C)c2ccc(C(F)(F)F)c(F)c2)[C@@H]2CC[C@H]1N2c1nnn[nH]1` (single isomer, unassigned) [49D*], 50 to 100 µM.
In turn, `C[C@@H]1C[C@@H](NC(=O)N(C)c2ccc(Cl)c(F)c2)[C@H]2CC[C@@H]1N2c1nnn[nH]1` (single isomer, unassigned) [50A*] registered an IC50 of 1 to 10 µM.
The result for `C[C@@H]1C[C@H](NC(=O)N(C)c2ccc(Cl)c(F)c2)[C@H]2CC[C@@H]1N2c1nnn[nH]1` (single isomer, unassigned) [50B*] reads over 100 µM; that for `C[C@H]1C[C@@H](NC(=O)N(C)c2ccc(Cl)c(F)c2)[C@@H]2CC[C@H]1N2c1nnn[nH]1` (single isomer, unassigned) [50C*], over 100 µM.
The result for `C[C@H]1C[C@H](NC(=O)N(C)c2ccc(Cl)c(F)c2)[C@@H]2CC[C@H]1N2c1nnn[nH]1` (single isomer, unassigned) [50D*] reads 10 to 50 µM; that for `C[C@@H]1C[C@H](NC(=O)N(C)c2ccc(OC(F)(F)F)c(F)c2)[C@H]2CC[C@@H]1N2c1nnn[nH]1` (single isomer, unassigned) [51B*], 50 to 100 µM.
The result for `C[C@H]1C[C@@H](NC(=O)N(C)c2ccc(OC(F)(F)F)c(F)c2)[C@@H]2CC[C@H]1N2c1nnn[nH]1` (single isomer, unassigned) [51C*] reads over 100 µM.
`C[C@H]1C[C@H](NC(=O)N(C)c2ccc(OC(F)(F)F)c(F)c2)[C@@H]2CC[C@H]1N2c1nnn[nH]1` (single isomer, unassigned) [51D*] yielded an IC50 of 10 to 50 µM.
With `C[C@@H]1C[C@H](NC(=O)N(C)c2ccc(OC(F)F)c(F)c2)[C@H]2CC[C@@H]1N2c1nnn[nH]1` (single isomer, unassigned) [52B*], the IC50 was over 100 µM.
The result for `C[C@H]1C[C@@H](NC(=O)N(C)c2ccc(OC(F)F)c(F)c2)[C@@H]2CC[C@H]1N2c1nnn[nH]1` (single isomer, unassigned) [52C*] reads over 100 µM.
Next, `C[C@H]1C[C@H](NC(=O)N(C)c2ccc(OC(F)F)c(F)c2)[C@@H]2CC[C@H]1N2c1nnn[nH]1` (single isomer, unassigned) [52D*]: 10 to 50 µM; `C[C@@H]1C[C@@H](NC(=O)N(C)c2ccc(C(F)F)c(F)c2)[C@H]2CC[C@@H]1N2c1nnn[nH]1` (single isomer, unassigned) [53A*]: 1 to 10 µM; `C[C@@H]1C[C@H](NC(=O)N(C)c2ccc(C(F)F)c(F)c2)[C@H]2CC[C@@H]1N2c1nnn[nH]1` (single isomer, unassigned) [53B*]: over 100 µM.
Compound `C[C@H]1C[C@@H](NC(=O)N(C)c2ccc(C(F)F)c(F)c2)[C@@H]2CC[C@H]1N2c1nnn[nH]1` (single isomer, unassigned) [53C*] yielded an IC50 of over 100 µM.
Next, `C[C@H]1C[C@H](NC(=O)N(C)c2ccc(C(F)F)c(F)c2)[C@@H]2CC[C@H]1N2c1nnn[nH]1` (single isomer, unassigned) [53D*]: over 100 µM; `C[C@@H]1C[C@H](NC(=O)N(C)c2ccc(C3CC3)c(F)c2)[C@H]2CC[C@@H]1N2c1nnn[nH]1` (single isomer, unassigned) [54B*]: over 100 µM.
Compound `C[C@H]1C[C@@H](NC(=O)N(C)c2ccc(C3CC3)c(F)c2)[C@@H]2CC[C@H]1N2c1nnn[nH]1` (single isomer, unassigned) [54C*] returned an IC50 of over 100 µM.
The result for `C[C@H]1C[C@H](NC(=O)N(C)c2ccc(C3CC3)c(F)c2)[C@@H]2CC[C@H]1N2c1nnn[nH]1` (single isomer, unassigned) [54D*] reads 10 to 50 µM.
`C[C@@H]1C[C@H](NC(=O)N(C)c2ccc(C(F)F)cc2F)[C@H]2CC[C@@H]1N2c1nnn[nH]1` (single isomer, unassigned) [55B*] returned an IC50 of over 100 µM.
Next, `C[C@H]1C[C@@H](NC(=O)N(C)c2ccc(C(F)F)cc2F)[C@@H]2CC[C@H]1N2c1nnn[nH]1` (single isomer, unassigned) [55C*]: 50 to 100 µM; `C[C@H]1C[C@H](NC(=O)N(C)c2ccc(C(F)F)cc2F)[C@@H]2CC[C@H]1N2c1nnn[nH]1` (single isomer, unassigned) [55D*]: 10 to 50 µM.
The result for `C[C@@H]1C[C@H](NC(=O)N(C)c2ccc(OC(F)(F)F)cc2F)[C@H]2CC[C@@H]1N2c1nnn[nH]1` (single isomer, unassigned) [56B*] reads over 100 µM; that for `C[C@H]1C[C@@H](NC(=O)N(C)c2ccc(OC(F)(F)F)cc2F)[C@@H]2CC[C@H]1N2c1nnn[nH]1` (single isomer, unassigned) [56C*], 50 to 100 µM.
As to `C[C@H]1C[C@H](NC(=O)N(C)c2ccc(OC(F)(F)F)cc2F)[C@@H]2CC[C@H]1N2c1nnn[nH]1` (single isomer, unassigned) [56D*], the IC50 is 1 to 10 µM.
The result for `C[C@@H]1C[C@H](NC(=O)N(C)c2ccc(OC(F)F)cc2F)[C@H]2CC[C@@H]1N2c1nnn[nH]1` (single isomer, unassigned) [57B*] reads over 100 µM.
